Laboratory results reported in patent US6392055B1, “Synthesis and biological evaluation of analogs of the antimitotic marine natural product curacin A” (The University of Pittsburgh, priority 2000, dated 2002).
Like-named read-outs stand apart in the source and are kept apart here.

What was measured:
[1] = tested on: 2008 cells; assay: Growth inhibition of ovarian carcinoma cells (MTS); format: cell-based, human
[2] = tested on: MDA-MB231 cells; assay: Growth inhibition of breast carcinoma cells (MTS); format: cell-based, human
[3] = tested on: PC-3 cells; assay: Growth inhibition of prostate carcinoma cells (MTS); format: cell-based, human
[4] = tested on: tubulin (colchicine site); assay: Inhibition of [3H]colchicine binding to tubulin; design: species or system bovine; details: for Percent Colchicine Binding Inhibition (CBI), 5 μM / % CBI 5 μM, (30° C.) / % CBI 5 μM, 37° C.: 5 μM compound; for Percent Colchicine Binding Inhibition (CBI), 50 μM / % CBI 50 μM, (30° C.) / % CBI 50 μM, 37° C.: 50 μM compound; for % CBI 5 μM, (30° C.) / % CBI 50 μM, (30° C.): 30° C. (values in parentheses)
Method: Assays to determine whether 15mix-17mix inhibited binding of [^3H]colchicine to tubulin at both 30° C. and 37° C. were performed. This was accomplished using methods described previously. Kang, G.-J.; Getahun, Z.; Muzaffar, A.; Brossi, A.; Hamel, E. J. Biol. Chem. 1990, 265, 10255; Verdier-Pinard, P.; Lai, J.-Y.; Yoo, H.-D.; Yu, J.; Marquez, B.; Nagle, D. G.; Nambu, M.; White, J. D.; Falck, J. R.; Gerwick, W. H.; Day, B. W.; Hamel, E. Mol. Pharmacol. 1998, 53, 62. Briefly, 5 μM [^3H]colchicine (2.3 TBq/mmol), drug (1, 5, 10, 50, or 250 μM), or vehicle (DMSO, 5% v/v) were incubated at 30° C. for 15 minutes or at 37° C. for 10 minutes with 1 μM tubulin in the presence of 1 M monosodium glutamate, 0.1 M glucose-1-phosphate, 1 mM MgCl2, 1 mM GTP, and 0.5 mg/mL bovine serum albumin. The solutions were filtered through two stacks of DEAE-cellulose filters and the radioactivity in the filtrate was determined by scintillation spectrometry. Each series of determinations included positive controls of 1, 5, and/or 50 μM curacin A.

[5] = tested on: isolated bovine brain tubulin; assay: Inhibition of GTP/glutamate-induced tubulin polymerization (turbidimetric, 30° C.); format: biochemical; details: 5 μM compound
[6] = 96 h, Table II prints no unit, read-out: GI50 2008 96 h
[7] = read-out: GI50 2008 48 h, 48 h, Table II prints no unit
[8] = 96 h, Table II prints no unit, read-out: GI50 MDA 96 h
[9] = read-out: GI50 MDA 48 h, 48 h, Table II prints no unit
[10] = 96 h, Table II prints no unit, read-out: GI50 PC3 96 h
[11] = read-out: GI50 PC3 48 h, 48 h, Table II prints no unit
[12] = 96 h, read-out: GI50 2008 (ovarian) 96 h
[13] = read-out: GI50 2008 (ovarian) 48 h, 48 h
[14] = 96 h, read-out: GI50 MDA-MB231 (breast) 96 h
[15] = read-out: GI50 MDA-MB231 (breast) 48 h, 48 h
[16] = 96 h, read-out: GI50 PC3 (prostate) 96 h
[17] = read-out: GI50 PC3 (prostate) 48 h, 48 h

| Compound | GI50 [1, 6] [nM] | GI50 [1, 7] [nM] | GI50 [2, 8] [nM] | GI50 [2, 9] [nM] | GI50 [3, 10] [nM] | GI50 [3, 11] [nM] | Percent Colchicine Binding Inhibition (CBI), 5 μM [4] [%] | Percent Colchicine Binding Inhibition (CBI), 50 μM [4] [%] | Percent Tubulin Polymerization Inhibition (TPI), 5 μM [5] [%] | GI50 [1, 12] [nM] | GI50 [1, 13] [nM] | GI50 [2, 14] [nM] | GI50 [2, 15] [nM] | GI50 [3, 16] [nM] | GI50 [3, 17] [nM] | % CBI 5 μM, (30° C.) [4] | % CBI 5 μM, 37° C. [4] [%] | % CBI 50 μM, (30° C.) [4] | % CBI 50 μM, 37° C. [4] [%] | % TPI 5 μM [5] [%] |
| --- | --- | --- | --- | --- | --- | --- | --- | --- | --- | --- | --- | --- | --- | --- | --- | --- | --- | --- | --- | --- |
| COc1cc(/C=C\CC/C=C/C=C(\C)CCC(O)c2ccco2)cc(OC)c1OC (centres unmarked) [Compound 19CR1] | 2530 ± 640 | 2720 ± 960 | 790 ± 167 | 288 ± 166 | 7730 ± 1220 | 7990 ± 3520 | 30.3 ± 7.5 | 59.7 ± 1.6 | 94.4 |  |  |  |  |  |  |  |  |  |  |  |
| COc1cc(/C=C\CC/C=C/C=C(\C)CCC(O)c2cccs2)cc(OC)c1OC (centres unmarked) [Compound 19CR2] | 235 ± 21 | 380 ± 2 | 1280 ± 120 | 83 ± 125 | 1220 ± 220 | 875 ± 1020 | 30.2 ± 7.3 | 71.6 ± 2.8 | >100 |  |  |  |  |  |  |  |  |  |  |  |
| COc1cc(/C=C\CC/C=C/C=C(\C)CCC(O)c2cc3ccccc3o2)cc(OC)c1OC (centres unmarked) [Compound 19CR3] | 279 ± 30 | 311 ± 63 | 214 ± 51 | 151 ± 51 | 1020 ± 380 | 366 ± 157 | 9.9 ± 3.0 | 59.0 ± 7.5 | >100 |  |  |  |  |  |  |  |  |  |  |  |
| COc1cc(/C=C\CC/C=C/C=C(\C)CCC(O)c2cc3ccccc3s2)cc(OC)c1OC (centres unmarked) [Compound 19CR4] | 268 ± 46 | 314 ± 25 | 221 ± 33 | 243 ± 46 | 634 ± 397 | 933 ± 1250 | 5.0 ± 7.4 | 73.0 ± 2.4 | >100 |  |  |  |  |  |  |  |  |  |  |  |
| COc1ccccc1C(O)CC/C(C)=C/C=C/CC/C=C\c1cc(OC)c(OC)c(OC)c1 (centres unmarked) [Compound 19CR5] | 199 ± 36 | 204 ± 112 | 204 ± 46 | 86 ± 146 | 1120 ± 40 | 596 ± 1250 | 12.5 ± 8.1 | 68.7 ± 1.1 | 74.6 |  |  |  |  |  |  |  |  |  |  |  |
| C=CC[C@@H](CC[C@@]1(C)C[C@H]1[C@H]1C[C@@H]1CC/C=C\[C@@H]1CSC([C@@H]2C[C@@H]2C)=N1)OC [JR DCCA] |  |  |  |  |  |  |  |  |  | > 50000 | > 50000 | > 50000 | > 50000 | > 50000 | > 50000 | (9 ± 5) % | −39 ± 7 | (−12 ± 9) % | −62 ± 5 | 0 |
| C=CC[C@@H](CC/C(C)=C/C=C/CC/C=C\[C@@H]1COC(C(C)(C)C)=N1)OC [JRC1] |  |  |  |  |  |  |  |  |  | 3700 ± 1500 | 450 ± 500 | 4100 ± 1100 | 1800 ± 300 | 8800 ± 800 | 6200 ± 1300 | (14 ± 5) % | 0 ± 7 | (80 ± 1) % | 87 ± 1 | 0 |
| C=CC[C@@H](CC/C(C)=C/C=C/CC/C=C\c1coc(C(C)(C)C)n1)OC [JRC2] |  |  |  |  |  |  |  |  |  | > 50000 | > 50000 | > 50000 | 36000 ± 22000 | > 50000 | > 50000 | (7 ± 5) % | 0 ± 17 | (7 ± 6) % | −52 ± 14 | 51 |
| C=CC[C@@H](CC/C(C)=C/C=C/CC/C=C\[C@@H]1CSC(C(C)(C)C)=N1)OC [JRC3] |  |  |  |  |  |  |  |  |  | 180 ± 110 | 220 ± 90 | 270 ± 160 | 200 ± 110 | 61 ± 59 | 130 ± 80 | (35 ± 4) % | −35 ± 15 | (63 ± 6) % | 13 ± 12 | 100 |
